Assay results: patent US11952433B2, “Heterochiral peptide-complex and composition for measuring nuclear magnetic resonance spectroscopy residual dipolar coupling containing self-assembled intermediates of heterochiral peptide-complex” (INDUSTRY-ACADEMIC COOPERATION FOUNDATION, YONSEI UNIVERSITY, priority 2020, dated 2024)

How the values were obtained:
[1] = Time course of self-assembly in solution by CD and AFM; type: physicochemical; details: in water; for self-assembly kinetics (in words): CD and AFM with time
Description: The CD spectra of the peptide complexes in aqueous solution were acquired using a Chirascan™ CD spectrometer. All the peptide complexes were adjusted to 20 μM with DI water and then incubated at room temperature for 2 hours. The CD spectra were recorded using a 2-mm path-length cuvette from 250 nm to 190 nm at 25° C. Each spectrum was collected by averaging three scans and corrected for the distilled water background spectrum.
The peptide complex samples were diluted to 20 μM and 10 μL was dropped onto a freshly cleaved mica plate. After 1 minute of incubation, the mica plate was washed with 100 μL of doubly distilled water and then the residual solution was gently removed using filter paper. After completely drying at room temperature, AFM measurement was made. The AFM scans were conducted at noncontact mode (NCM) with a Park NX10 instrument (Park Systems, Korea). The scanning was performed at a scan rate of 0.3 Hz and a Z-gain of 1.
All the peptide samples were diluted to 1 mM and divided into 1-mL aliquots. The aliquots were heated at 95° C. for 1 hour and slowly annealed in a water bath overnight. After the annealing process, the samples were incubated at room temperature and the self-assembly process with time was analyzed by CD, AFM, WAXS, NMR, etc.

[2] = Wide-angle X-ray scattering (WAXS) of the colloidal crystal solution; type: physicochemical; details: for WAXS d-spacing, intersheet distance / WAXS reflection d (second reflection) / WAXS reflection d, interstrand distance of β-sheets: 3.0 mg/mL, room temperature
Description: Wide-angle X-ray scattering analysis was performed using the 4C SAXS II beamline (BL) of the Pohang Accelerator Laboratory (PAL, Korea). In-vacuum undulator 20 of the Pohang Light Source II storage ring was used as a beam source, and a vertical toroidal focusing mirror was used to deliver an X-ray beam of 0.675 Å. 100 μL of the sample solution was mounted in a quartz microcapillary with a thickness of 10 μm and a length of 80 mm. The sample was irradiated for 5 seconds of exposure time at room temperature. The concentrations of the samples of Comparative Examples 1-2 and Example 1 (T-W6, T-w6 and T-(wW)3) were all 3.0 mg/mL. The X-ray scattering patterns were collected by using a charge-coupled detector (Mar USA, Inc.) positioned 20 cm apart from the sample (0.25 Å^−1<q<2.00 Å^−1).
The data were captured in six continuous frames of 0.1 minute each to minimize the damage from irradiation. Each 2D scattering pattern was averaged circularly from the beam focus and normalized to the intensity of the transmitted X-ray beam. The transmitted beam intensity was monitored with a scintillation counter. The scattering pattern of water was used as the experimental background.
However, the detailed molecular arrangement of the peptide in each crystal might be different. To address this question, wide-angle X-ray scattering (WAXS) analysis of the colloidal crystal solution was performed.

WAXS d-spacing, intersheet distance [2] [Å] | WAXS reflection d (second reflection) [2] [Å] | WAXS reflection d, interstrand distance of β-sheets [2] [Å] | Substance | self-assembly kinetics (in words) [1] | time after which the increase in CD signals had almost ceased (self-assembly equilibrium) ([1]; room temperature after annealing) [weeks] | distance between the β strands [2]
– | – | – | PEGylated (L)Trp-(D)Trp-(L)Trp-(D)Trp-(L)Trp-(D)Trp [Example 2] | same slow assembly kinetics | – | –
17.5 | 5.8 | 4.7 | PEGylated (L)Trp-(L)Trp-(L)Trp-(L)Trp-(L)Trp-(L)Trp [Comparative Example 1] | – | – | –
17.5 | 5.8 | 4.7 | PEGylated (D)Trp-(D)Trp-(D)Trp-(D)Trp-(D)Trp-(D)Trp [Comparative Example 2] | – | – | –

Substance | WAXS d-spacing, intersheet distance [2] [Å] | WAXS reflection d (second reflection) [2] [Å] | WAXS reflection d, interstrand distance of β-sheets [2] [Å] | self-assembly kinetics (in words) [1] | time after which the increase in CD signals had almost ceased (self-assembly equilibrium) ([1]; room temperature after annealing) [weeks] | distance between the β strands [2]
(D)Trp-(L)Trp-(D)Trp-(L)Tre-(D)Trp-(L)Trp [Example 1] | 17.0 | 5.6 | 4.7 | markedly slower self-assembly kinetics | 2 | 4.56-4.92 Å
